Consider 10 compounds from patent publication US20260198495A1, “BINARY INSECTICIDE COMPOSITION AND USE THEREOF” (SHENYANG SINOCHEM AGROCHEMICALS R & D CO., LTD., priority 2022, published 2026).

Common to all, as to format: in vivo
For data set [1], the system named is 3rd-instar larvae of Plutella xylostella. The data set can be described thus: Joint toxicity of I-72 + metaflumizone, airbrush spraying, Example 4, Table 4. The following applies: airbrush spraying of cabbage leaf disks, 72 h, A = compound I-72, B = metaflumizone. Here is the method:
Test target: 3rd-instar larvae of Plutella xylostella, a sensitive strain reared indoors.
Test conditions: temperature: 25-27° C., humidity: RH 60%, and illumination: L:D=14:10
Experimental method: the airbrush spraying method was adopted. The cabbage cultivated in the greenhouse was taken and made into leaf disks with a diameter of 3 cm. After uniform spraying treatment with an airbrush manual sprayer, the leaf disks were placed in a 9-cm Petri dish lined with filter paper. After natural air-drying in the shade, the standard test insects were introduced, and the number of dead and live insects was investigated 72 h later.
The preparation of the pesticide solution and the evaluation method (Sun Y-P) for the joint action type of the mixture were the same as those in Example 1.

Data set [2] has as its system 3rd-instar larvae of Pyrausta nubilalis Hubern. The data set can be described thus: Joint toxicity of I-72 + metaflumizone, artificial diet-pesticide film, Example 2, Table 2. The note with it: 72 h, A = compound I-72, B = metaflumizone. The procedure:
(§1) Test subject: 3rd-instar larvae of Pyrausta nubilalis Hubern, a sensitive strain reared indoors.
(§2) Experimental method: the artificial diet-pesticide film method was adopted. A standard clean 24-well culture plate was selected. 1 ml of artificial diet was added to each well. After the diet cooled and solidified, a quantitative amount of a pesticide solution was added to the culture plate using a continuous sampler, and then it was air-dried naturally in the shade. The standard test insects were introduced, with 1 insect in each well, a total of 48 insects. The treated test insects were placed in an observation room under certain conditions. The reaction of the test insects was regularly observed, and the number of dead and live insects was investigated 72 h later.
(§3) The test conditions, the preparation method of the pesticide solution, and the evaluation method (Sun Y-P) for the joint action type of the mixture were the same as those in Example 1.

Data set [3] has as its system 3rd-instar larvae of Ostrinia furnacalis Guenee. Nature of the data set: Joint toxicity of I-72 + organophosphorus insecticides, corn stalk dipping, Example 21, Table 21. The note with it: 48 h. The procedure:
Test target: 3rd-instar larvae of Ostrinia furnacalis Guenee, a sensitive strain reared indoors.
(§4) Preparation of the pesticide solution: according to different test requirements, the test samples were accurately weighed respectively with an electronic analytical balance. The technical pesticides were dissolved in acetone, and then diluted with 0.1% Tween 80 water into a series of pesticide solutions with a certain concentration gradient according to the experimental design dosage.
Experimental method: first, fresh tender corn stalks cultivated in the greenhouse were selected, cut into small sections of 3 cm, and dipped in the prepared pesticide solution for 10 s in the order from low dosage to high dosage according to the experimental design. After natural air-drying in the shade, they were placed in a 9-cm-diameter Petri dish with filter paper, and uniform and healthy test insects were introduced, with 10 insects for each treatment and 3 replicates for each treatment. In addition, a blank control was set up.
(§5) The treated test materials were placed in an observation room, and the temperature, humidity and illumination of the observation room could be adjusted as needed. The number of dead and live insects was investigated 48 hours later. The corrected mortality rate was calculated using the Abbott's formula, and statistical analysis was performed with the DPS data processing software to obtain the toxicity regression equation, LC50 value and 95% confidence limit of each single test pesticide and each mixture of different ratios. Then, the co-toxicity coefficient of each ratio was calculated using the Sun Y-P method to evaluate the mixing effect (the same as in Example 1).

The next data set concerns adult Phyllotreta spp. Nature of the data set: Joint toxicity of I-72 + organophosphorus insecticides, cabbage seedling spraying, Example 19, Table 19. The following applies: 72 h. Here is the method: Test target: adult Phyllotreta spp., a sensitive strain reared indoors.
as §4
Experimental method: first, fresh cabbage seedlings cultivated in the greenhouse were selected and evenly sprayed with the pesticide solution in the order from low dosage to high dosage according to the experimental design. After natural air-drying in the shade, they were covered with a glass cover, and uniform and healthy test insects were introduced, with 10 insects for each treatment and 3 replicates for each treatment. In addition, a blank control was set up.
as §5, with “72” for “48”

The subject of data set [4] is Bemisia tabaci (Gennadius) nymphs. Nature of the data set: Joint toxicity of I-72 + organophosphorus insecticides, cotton leaf-disk spraying, Example 18, Table 18. The note with it: 96 h. Here is the method:
Test target: Bemisia tabaci (Gennadius) nymphs.
as §4
Experimental method: first, cotton leaves with neat and consistent Bemisia tabaci (Gennadius) nymphs were selected and made into leaf disks, with about 20 insects on each leaf disk. Then, they were evenly sprayed with the pesticide solution in the order from low dosage to high dosage according to the experimental design, with 1.5 mL for each leaf and 3 replicates for each treatment. In addition, a blank control was set up.
as §5, with “96” for “48”

Data set [5] has as its system 3rd-instar larvae of Chilo suppressalis (Walker). Nature of the data set: Joint toxicity of I-72 + organophosphorus insecticides, rice seedling dipping, Example 15, Table 15. The following applies: 48 h. Here is the method:
Test target: 3rd-instar larvae of Chilo suppressalis (Walker), a sensitive strain reared indoors.
as §4
Experimental method: first, tender and fresh rice seedlings were selected and dipped in the prepared pesticide solution for 10 s in the order from low dosage to high dosage according to the experimental design. After natural air-drying in the shade, they were cut into small sections of 5 cm, placed in a 9-cm-diameter Petri dish with filter paper, and uniform and healthy test insects were introduced, with 10 insects for each treatment and 3 replicates for each treatment. In addition, a blank control was set up.
as §5

Data set [6] concerns early 2nd-instar grubs of Holotrichia diomphalia Bates. The data set can be described thus: whole plant or invertebrate. The procedure:
Test target: early 2nd-instar grubs of Holotrichia diomphalia Bates.
(§6) Test conditions: temperature: 24-26° C., humidity: RH 60%, and illumination: L:D=14:10
as §4
Experimental method: the activity against Holotrichia diomphalia Bates was determined by the insect-dipping method. The early 2nd-instar grubs of Holotrichia diomphalia Bates were selected. The target insects were dipped into the pesticide solution for 10 s and then taken out. Excess pesticide solution was absorbed with filter paper. […] A treatment without the pesticide was set as the blank control.
The test insects were transferred to a multi-well culture plate with fresh potato pieces and placed in an observation room, and the temperature, humidity and illumination of the observation room could be adjusted as needed. The number of dead and live insects was investigated 72 hours later. The corrected mortality rate was calculated using the Abbott's formula, and statistical analysis was performed with the DPS data processing software to obtain the toxicity regression equation and LC50 value of each single test pesticide and each mixture of different ratios.

The test system of data set [7] is Aphis gossypii Glover nymphs. The data set can be described thus: Joint toxicity of I-72 + organophosphorus insecticides, cotton leaf spraying, Example 17, Table 17. The following applies: 48 h. The procedure:
Test target: Aphis gossypii Glover nymphs, a sensitive strain reared indoors.
as §4
Experimental method: first, cotton leaves with uniform and consistent Aphis gossypii were selected, with about 20 insects on each leaf. Then, they were evenly sprayed with the pesticide solution in the order from low dosage to high dosage according to the experimental design, with 1.5 mL for each leaf and 3 replicates for each treatment. In addition, a blank control was set up.
as §5

The test system of data set [8] is 3rd-instar larvae of Spodoptera frugiperda. Nature of the data set: Joint toxicity of I-72 + indoxacarb, corn leaf dipping, Example 3, Table 3. The following applies: 72 h, A = compound I-72, B = indoxacarb.
Text: (§7) Test subject: 3rd-instar larvae of Spodoptera frugiperda, a sensitive strain reared indoors.
(§8) Experimental method: the dipping method was adopted. The corn leaves cultivated in the greenhouse were taken, cut into leaf segments of 5 cm long, dipped in the prepared pesticide solution for 10 s, and then cut into small pieces of 1.5 cm×1.5 cm after natural air-drying in the shade. These pieces were placed in a 24-well culture plate, and the standard test insects were introduced, with 48 insects for each treatment. The treated test insects were placed in an observation room under certain conditions. The reaction of the test insects was regularly observed, and the number of dead and live insects was investigated 72 h later.
as §3

Data set [9] concerns 3rd-instar larvae of Spodoptera exigua Hübner. The data set can be described thus: Joint toxicity (LC50, CTC) of I-72 + indoxacarb, leaf-disk dipping, Example 1, Table 1. The following applies: cabbage leaf-disk dipping, 72 h, A = compound I-72, B = indoxacarb. Here is the method: Test subject: 3rd-instar larvae of Spodoptera exigua Hübner, a sensitive strain reared indoors.
Test conditions: temperature: 24-26° C., humidity: RH 60%, and illumination: L:D=14:10.
(§9) Preparation method: the test pesticides were accurately weighed respectively with an electronic analytical balance. After the two technical materials were respectively added into an appropriate amount of solvent and completely dissolved, the stock solution of the required concentration was prepared with water containing 0.1% Tween 80. The stock solutions of the two active ingredients were mixed in a certain ratio to prepare a mixed solution, which was then diluted respectively into a series of pesticide solutions with a certain concentration gradient according to the experimental design dosage.
Experimental method: the dipping method was adopted. […]
The co-toxicity coefficient (CTC value) of the mixture was calculated according to the following formula:
[formula] • in the formula: ATI-measured toxicity index of the mixture; S-LC50 of the standard pesticide; and M-LC50 of the mixture. […]
[formula] • in the formula: CTC-co-toxicity coefficient; ATI-measured toxicity index of the mixture; and TTI-theoretical toxicity index of the mixture. • CTC-co-toxicity coefficient • ATI-measured toxicity index of the mixture • TTI-theoretical toxicity index of the mixture

Data set [10] has as its system Frankliniella occidentalis Pergande. Nature of the data set: Joint toxicity of I-72 + organophosphorus insecticides, leaf dipping, Example 14, Table 14. The following applies: in Phaseolus vulgaris, foliar, 48 h.
Text: Test target: Frankliniella occidentalis Pergande, a sensitive strain reared indoors.
Experimental method: first, kidney bean leaves were selected and dipped in the prepared pesticide solution for 10 s in the order from low dosage to high dosage according to the experimental design. After natural air-drying in the shade, they were placed in a 9-cm-diameter Petri dish with filter paper, and uniform and healthy test insects were introduced, with about 20 insects for each treatment and 3 replicates for each treatment. In addition, a blank control was set up.
The subject of data set [11] is 3rd-instar larvae of Hyphantria cunea. The data set can be described thus: Joint toxicity of I-72 + organophosphorus insecticides, poplar leaf dipping, Example 20, Table 20. The following applies: foliar, A = compound I-72, B = phoxim, poplar leaf dipping, 72 hours, read-out: LC50.
Text: Test target: 3rd-instar larvae of Hyphantria cunea, a sensitive strain reared indoors.
Experimental method: first, fresh and tender poplar leaves were selected, cut into small sections of 5 cm, and dipped in the prepared pesticide solution for 10 s in the order from low dosage to high dosage according to the experimental design. After natural air-drying in the shade, they were placed in a 9-cm-diameter Petri dish with filter paper, and uniform and healthy test insects were introduced, with 10 insects for each treatment and 3 replicates for each treatment. In addition, a blank control was set up.
The treated test materials were placed in an observation room, and the temperature, humidity and illumination of the observation room could be adjusted as needed. The number of dead and live insects was investigated 72 hours later.
The test system of data set [12] is 3rd-instar larvae of Spodoptera frugiperda. Nature of the data set: Joint toxicity of I-72 + spinosad, corn leaf dipping, Example 10, Table 10. The note with it: 72 h, A = compound I-72, B = spinosad.
Text: as §7, §8
The test conditions, the preparation of the pesticide solution and the evaluation method were the same as those in Example 1.

The test system of data set [13] is 3rd-instar larvae of Pyrausta nubilalis Hubern. The data set can be described thus: Synergism assay (Bliss) of I-72 + abamectin, spinosad, spinetoram, emamectin benzoate, Example 6, Table 6. The following applies: 72 h. Here is the method:
as §1, §6, §9, §2
The evaluation method adopted was the Bliss method. This method is applicable to the qualitative screening of insecticidal compositions. According to the concept of independent joint action he proposed, Bliss believes that the theoretical mortality rate P when insecticides are used in combination can be calculated by the following formula: […]
Pm is the mortality rate (%) of the target when the first active ingredient is at a concentration of m; and Pn is the mortality rate (%) of the target when the second active ingredient is at a concentration of n.
If the actual mortality rate of the target after the two active ingredients are mixed at a certain concentration is greater than theoretical mortality rate P, it is determined that the two active ingredients have a synergistic effect when used in combination at the set concentration, and otherwise, they have an antagonistic effect.

Values after ≈ are worked out from the molar mass of the structure shown. Read-outs that look alike come from different tables or passages of the source.

For the compound `N#Cc1ccc(CC(=NNC(=O)Nc2ccc(OC(F)(F)F)cc2)c2cccc(C(F)(F)F)c2)cc1` (mixture of isomers) [metaflumizone, reference compound], the LC50 (as a rule, the concentration lethal to half of the exposed cells or organisms) in data set [1] amounted to 12.8933 µg/mL; in data set [2], 1.0724 µg/mL.
`COP(=O)(NC(C)=O)SC` (stereo not drawn) [acephate]: the LC50 in [3] is 15.5 µg/mL; in the data set on adult Phyllotreta spp., 61.6 µg/mL; in data set [4], 34.9 µg/mL; in data set [5], 11.1 µg/mL.
Turning to `CO/C=C(/C(=O)OC)c1ccccc1Oc1cc(Oc2ccccc2C#N)ncn1` [azoxystrobin], the 50% lethal concentration (LC50) in [6] (A = compound I-72, B = azoxystrobin, insect-dipping, 72 hours) worked out at 473.5404 µg/mL (≈ 1170 µM).
Regarding `CCOP(=S)(OCC)Oc1cc(C)nc(C(C)C)n1` [diazinon], the LC50 amounted to 6.22 µg/mL in data set [5] (3rd-instar larvae, rice seedling dipping, A = compound I-72, B = diazinon, read-out: LC50) and 20.5 µg/mL in [7].
Take `CC1COC(Cn2cncn2)(c2ccc(Oc3ccc(Cl)cc3)cc2Cl)O1` (stereo not drawn) [difenoconazole]: the LC50 in data set [6] (Holotrichia diomphalia, 72 h) amounted to 500 µg/mL (≈ 1230 µM).
On to `COC(=O)N(C(=O)N1CO[C@@]2(C(=O)OC)Cc3cc(Cl)ccc3C2=N1)c1ccc(OC(F)(F)F)cc1` [indoxacarb, reference compound], for which the LC50 was 2.2438 µg/mL in data set [8] and 0.8555 µg/mL in data set [9].
Regarding `CCOC(=O)CC(SP(=S)(OC)OC)C(=O)OCC` (stereo not drawn) [malathion], the LC50 in data set [10] is 52.3 µg/mL.
`CCOP(=S)(OCC)O/N=C(\C#N)c1ccccc1` [phoxim]: the LC50 in [11] is 10.1 µg/mL; in data set [7] (nymphs, cotton leaf spraying, A = compound I-72, B = phoxim, read-out: LC50) it was 31.6 µg/mL.
In data set [6] (Holotrichia diomphalia, 72 h), `CC(C)(C)C(O)(CCc1ccc(Cl)cc1)Cn1cncn1` (stereo not drawn) [tebuconazole] came in with an LC50 of 477 µg/mL (≈ 1550 µM).
Take spinosad: the LC50 in [12] turned out to be 1.1242 µg/mL. Moreover, the “Mortality rate (%)” value in data set [13] (single agent 0.1 mg/L) stood at 4.17%; in data set [13] (single agent 1 mg/L), 52.08%; in [13] (single agent 2 mg/L) it was 68.75%; in data set [13] (single agent 5 mg/L), 79.17%.
